One assay has as its system neurons. Also on record: method as in PMID 21102461. The note with it: cited from earlier work.
Another assay has as its target T1, PDZ2 of PSD-95 (Homo sapiens, UniProt P78352).
T1 construct: PDZ2 (155-249); made in house; host or cells: E. coli BL21-DE3 pLysS
Briefly: FP inhibition assay, Cy5-GluN2B probe / PDZ2. The format is binding. The settings on record: concentrations reaching 500–1800 μM; Cy5-GluN2B 50 nM; [PDZ2] = 6 μM. As for the experimental part:
(§1) Fluorescent probes were made by attaching fluorophores (Cy5) to C-terminal 10- or 11-mer (C10 or C11) peptide ligands representing canonical and natural occurring protein partners (Supplementary Table S1). […] (Fig. 2).
(§2) (b) Cy5-GluN2B as probe (50 nM), [PDZ2] = 6 μM. (c) Cy5-CRIPT as probe (50 nM), [PDZ3] = 5 μM. […] Error bars indicate SEM based on three individual measurements. […]
(§3) Incubation time was 10–15 minutes (room temperature), and the assay was performed in a 1 × TBS buffer (150 mM NaCl, 10 mM Tris, pH 7.4) using black flat-bottom 384-well plates (Corning Life Sciences, NY) and a Safire2 plate-reader (Tecan, Männedorf, Switzerland). […] TAMRA- and Cy5-probes were measured at excitation/emission values of 530/585 nm (bandwidth = 20 nm) and 635/670 nm (bandwidth = 15 nm), respectively. […]
(§4) FP values were fitted to the general equation: Y = Bottom + (Top–Bottom)/[1 + (10^(X-logIC50)*HillSlope)], where X is the logarithmic value of peptide/compound concentration, and Y is the experimental FP values. Competitive inhibition constants, Ki values, were calculated from the IC50 values to quantify affinities between test substance and protein[42]. […]

The test system of a further assay is PSD-95/SynGAP. Also on record: method as in PMID 21102461. The settings on record: cited from earlier work.
The test system of assay [1] is NMDA receptor-mediated NO synthesis. More on the design: method as in PMID 21102461. The settings on record: cited from earlier work.
The target of a further assay is PSD-95-PDZ2 (Homo sapiens, UniProt P78352). Briefly: ITC titration into PSD-95-PDZ2. Format: binding. More on the design: PSD-95-PDZ2 (157–249, human); made in house. The note with it: 100 μM protein in cell, 750 μM compound in syringe, 1% DMSO, pH 6.3, 25 °C. The text has this:
(§5) Unlike the FP experiments above, which rely on inhibition of interaction partners, the ITC method is a direct measure of binding, regardless of where it takes place on the protein.
(§6) Figure 5 ITC curves. Plots showing titrations into PDZ domains fitted to a one-site model.
(§7) For isothermal titration calorimetry (ITC) and NMR, PSD-95-PDZ2 (157–249, human) was expressed and purified as described previously. The sequence for the extended Mus musculus nNOS-PDZ (residues 12–134, Uniprot Q9JJ30) was sub-cloned into a pETM11 vector using cloning sites Nco1 and Kpn1, and the protein was expressed and purified following a similar protocol to that used for the production of PSD-95-PDZ2.
(§8) All ITC experiments were carried out at 25 °C on an iTC200 Microcalorimeter (GE Healthcare) with a 200 μL cell capacity and 40 μL syringe volume. The buffer used for all solutions was 20 mM phosphate buffer at pH 6.3; each experiment consisted of an initial injection of 0.5 μL, followed by fifteen 2.39 μL injections before a final injection of 1.89 μL. […] In both cases no heat exchange was detected, confirming that there was appropriate match of buffer conditions with no indication of dilution effects. […] For the nNOS-PDZ/PSD-95-PDZ2 interaction, 100 μM PDZ2 in the cell was titrated with 750 μM nNOS-PDZ. […] All data was analysed using the Origin®7 software programme.

The next assay has as its system PSD-95/GluN2B. Also on record: method as in PMID 21102461. The note with it: cited from earlier work.
The next assay deals with T2, PDZ3 of PSD-95 (Homo sapiens, UniProt P78352).
T2 construct: PDZ3 (309-401); made in house; host or cells: E. coli BL21-DE3 pLysS
Nature of the assay: FP inhibition assay, Cy5-CRIPT probe / PDZ3. The format is binding. The settings on record: concentrations reaching 500–1800 μM; Cy5-CRIPT 50 nM; [PDZ3] = 5 μM. As for the experimental part:
as §1, §2, §3, §4

The subject of the next assay is nNOS/CAPON. More on the design: method as in PMID 21102461. The note with it: cited from earlier work.
In assay [2] the target is T3, TAMRA-nNOS/PSD-95-PDZ1-2 interaction (Homo sapiens, UniProt P29475+P78352, V36C).
T3 construct: nNOS-PDZ (12–130, human); PDZ1-2 (61-249); made in house; host or cells: E. coli
Nature of the assay: 'direct' FP assay, TAMRA-nNOS / PDZ1-2 (saturation and inhibition). Format: binding.
Text: The assay was established by creating a fluorescent version of nNOS-PDZ by TAMRA-labelling nNOS-PDZ via an introduced cysteine residue (V36C).
nNOS-PDZ (12–130, human) and α-Syntrophin-PDZ (82–200, human), both comprising an N-terminal His-tag/FXa-site sequence ([sequence]), were likewise expressed in E. coli and purified by HisTrap chromatography followed by gel-filtration as described in details previously[19]. To make the TAMRA-labelled nNOS-PDZ, mutant nNOS-PDZ (V36C) protein was generated by standard site-directed mutagenesis and characterized as described previously[19]. […]

The target of a further assay is T4, extended nNOS-PDZ (Mus musculus, UniProt Q9Z0J4).
T4 construct: nNOS-PDZ (residues 12–134, Uniprot Q9JJ30); made in house
Briefly: ITC titration into extended nNOS-PDZ. The format is binding. The note with it: 100 μM protein in cell, 750 μM compound in syringe, 1% DMSO, pH 6.3, 25 °C.
Text: as §5, §6, §7, §8

A further assay has as its system nNOS/PSD-95 interaction. More on the design: method as in PMID 21102461. The settings on record: extracts from glutamate- or ischemia-induced cultured neurons and cortical brain; cited from earlier work.
Assay [3] deals with T5, nNOS-PDZ/PSD-95-PDZ2 interaction (Mus musculus, UniProt Q9Z0J4).
T5 construct: nNOS-PDZ (residues 12–134, Uniprot Q9JJ30); PSD-95-PDZ2 (157–249, human); made in house
Briefly: ITC of nNOS-PDZ/PSD-95-PDZ2 interaction in the presence of compound. The format is binding. The note with it: 1 mM IC87201 present; significant interference, reduced reliability. As for the experimental part:
as §5, §6, §8

Here are results for two molecules from PMC4503980 (Scientific Reports, 2015).

T4 sequence (Q9Z0J4 12-134): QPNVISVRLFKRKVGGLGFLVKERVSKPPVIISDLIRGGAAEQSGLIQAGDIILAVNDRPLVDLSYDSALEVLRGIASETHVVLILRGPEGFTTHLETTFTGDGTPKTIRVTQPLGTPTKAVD
Sequence of PSD-95-PDZ2 (P78352 157-249): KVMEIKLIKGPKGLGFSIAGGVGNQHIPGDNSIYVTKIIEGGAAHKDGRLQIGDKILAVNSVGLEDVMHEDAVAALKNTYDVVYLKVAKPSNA
T1 sequence (P78352 155-249): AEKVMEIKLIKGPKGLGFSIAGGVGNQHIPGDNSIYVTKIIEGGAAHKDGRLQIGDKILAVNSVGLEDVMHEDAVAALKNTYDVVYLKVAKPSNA
T3 sequence (P29475 12-130 V36C): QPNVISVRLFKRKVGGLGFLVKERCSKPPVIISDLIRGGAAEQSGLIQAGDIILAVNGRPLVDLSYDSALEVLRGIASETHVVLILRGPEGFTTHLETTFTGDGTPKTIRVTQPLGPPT
T3 sequence (P78352 61-249): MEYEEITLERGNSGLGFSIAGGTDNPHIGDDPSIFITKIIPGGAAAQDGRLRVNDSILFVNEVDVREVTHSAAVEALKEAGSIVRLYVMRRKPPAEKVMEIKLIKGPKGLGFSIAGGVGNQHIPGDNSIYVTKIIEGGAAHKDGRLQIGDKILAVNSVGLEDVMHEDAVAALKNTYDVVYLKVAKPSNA
T2 sequence (P78352 309-401): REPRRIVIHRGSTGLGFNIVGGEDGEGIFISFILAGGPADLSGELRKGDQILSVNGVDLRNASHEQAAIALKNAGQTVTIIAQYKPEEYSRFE
T5 sequence (Q9Z0J4 12-134): as the sequence (Q9Z0J4 12-134) above

For `O=C(O)c1ccc(NCc2cc(Cl)cc(Cl)c2O)cc1O` [ZL006, 4-((3,5-Dichloro-2-hydroxybenzyl)amino)-2-hydroxybenzoic acid], the “neuroprotective properties in neurons” value with neurons was “robust neuroprotective properties”. For the same molecule, the “inhibition of probe-PDZ interaction (PDZ2)” value against PDZ2 of PSD-95 is on record as “did not inhibit”. For the same molecule, the “inhibition of PSD-95/SynGAP” value in the assay on PSD-95/SynGAP is given as “not inhibited”. In addition, the “NMDA receptor-mediated NO synthesis” value in assay [1] was “inhibited”. For the same molecule, the “binding to PSD-95-PDZ2 by ITC” value at PSD-95-PDZ2 is on record as “binding was too weak to produce a binding isotherm”. In the assay with PSD-95/GluN2B, the “inhibition of PSD-95/GluN2B” value is reported as “not inhibited”. In addition, on PDZ3 of PSD-95, the “inhibition of probe-PDZ interaction (PDZ3)” value is “did not inhibit”. The “inhibition of nNOS/CAPON” value with nNOS/CAPON is listed as “not inhibited”. Further, the “inhibition of TAMRA-nNOS/PDZ1-2 interaction” value in assay [2] (tested at up to 1200 μM, TAMRA-nNOS 5 nM, PDZ1-2 0.3 μM) is “no activity”. Besides, the “binding to extended nNOS-PDZ by ITC” value on extended nNOS-PDZ was “binding was too weak to produce a binding isotherm”. Moreover, the “inhibition of nNOS/PSD-95 interaction (co-immunoprecipitation)” value in the assay with nNOS/PSD-95 interaction is “inhibit”.
On to `Oc1c(Cl)cc(Cl)cc1CNc1ccc2[nH]nnc2c1` [IC87201, 2-((1H-Benzo[d][1–3]triazol-5-ylamino)methyl)-4-6-dichlorophenol], for which the “inhibition of probe-PDZ interaction (PDZ2)” value at PDZ2 of PSD-95 is on record as “did not inhibit”. Besides, the “binding to PSD-95-PDZ2 by ITC” value on PSD-95-PDZ2 is “does not bind”. Moreover, the “effect on affinity between nNOS-PDZ and PSD-95-PDZ2 (ITC)” value in assay [3] is “appeared to be affected”. The “inhibition of probe-PDZ interaction (PDZ3)” value against PDZ3 of PSD-95 is “did not inhibit”. Also, the “inhibition of TAMRA-nNOS/PDZ1-2 interaction” value in assay [2] (up to 7.3 μM (fluorescence artefacts above), data not shown) is given as “no inhibition”. Further, the “binding to extended nNOS-PDZ by ITC” value on extended nNOS-PDZ was “does not bind”.
